In patent US8088806B2 (Achillion Pharmaceuticals, Inc., priority 2005, dated 2012):

test system: HCV replicon; assay: Replicon based assay of HCV replication inhibition (NPT ELISA); type: cell-based, Hepatitis C virus; conditions: Hepatitis C virus, Huh-7, 72 h, Table I; Huh-7 HCV replicon-containing cells, three days; read-out: Activity
Procedure, shortened: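 Huh-7 cells carrying a bicistronic HCV replicon (neo, EMCV-IRES-driven NS3–NS5B) treated overnight after seeding with usually 6 concentrations, 10 to 0.03 micromolar, for three days at 37° C without G418. Replication read as NPT level by captured ELISA; matched-DMSO wells and interferon alpha as controls.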

Question: For `Fc1ccc(-c2csc(Nc3ccc(Cc4ccccc4)cc3)n2)cc1` [compound 39, N-(4-benzylphenyl)-4-(4-fluorophenyl)thiazol-2-amine], which EC50 is on record?
Answer: The EC50 was over 10 µM.

Question: With `FC(F)(F)Oc1ccc(CNc2nc(-c3cccnc3)cs2)cc1` [compound 77, N-(4-(trifluoromethoxy)benzyl)-4-(pyridin-3-yl)thiazol-2-amine] as the molecule, how does the EC50 read?
Answer: The EC50 was over 10 µM.

Question: With `CCCCCOc1ccc(Nc2nc(CN3CCNC(=O)C3)cs2)cc1C(F)(F)F` [compound 216, 4-((2-(3-(trifluoromethyl)-4-(pentyloxy)phenylamino)thiazol-4-yl)methyl)piperazin-2-one] as the molecule, how does the EC50 read?
Answer: The EC50 was under 1 µM.

Question: How did the EC50 turn out when `CCCCc1ccc(CNc2nc(-c3cccnc3)cs2)cc1` [compound 82, N-(4-butylbenzyl)-4-(pyridin-3-yl)thiazol-2-amine] was run?
Answer: Its EC50 is over 10 µM.

Question: How did the EC50 turn out when `CCCCCOc1ccc(Nc2nc(C(=O)NCc3ccc(S(N)(=O)=O)cc3)cs2)cc1C(F)(F)F` [compound 153, 2-(4-(pentyloxy)-3-(trifluorornethyl)phenylamino)-N-(4-aminosulfonylbenzyl)thiazole-4-carboxamide] was run?
Answer: The EC50 was 1 to 10 µM.

Question: `CCCCCOc1ccc(N(C)c2nc(-c3cccnc3)cs2)cc1C(F)(F)F` [compound 157, N-(3-(trifluoromethyl)-4-(pentyloxy)phenyl)-N-methyl-4-(pyridin-3-yl)thiazol-2-amine] was tested. Which EC50 did it give?
Answer: Its EC50 is under 1 µM.

Question: With `O=C(Nc1ccc(Cl)c(Cl)c1)c1nc(-c2cccnc2)cs1` [compound 123, N-(3,4-dichlorophenyl)-4-(pyridin-3-yl)thiazole-2-carboxamide] as the molecule, how does the EC50 read?
Answer: Its EC50 is over 10 µM.

Question: How did the EC50 turn out when `CCCCCOc1ccc(Nc2ncc(-c3ccccc3)s2)cc1C(F)(F)F` [compound 117, N-(3-(trifluoromethyl)-4-(pentyloxy)phenyl)-5-phenylthiazol-2-amine] was run?
Answer: Its EC50 is under 1 µM.

Question: With `O=C(Nc1ccc(Cl)c(Cl)c1)c1csc(-c2cccnc2)n1` [compound 125, N-(3,4-dichlorophenyl)-2-(pyridin-3-yl)thiazole-4-carboxamide] as the molecule, how does the EC50 read?
Answer: The EC50 was over 10 µM.

Question: For `Clc1ccccc1-c1csc(Nc2cccc(OCc3ccccc3)c2)n1` [compound 196, N-(3-(benzyloxy)phenyl)-4-(2-chlorophenyl)thiazol-2-amine], which EC50 is on record?
Answer: Its EC50 is under 1 µM.

Question: Which EC50 does the source give for `CCCCCOc1ccc(Nc2nc(C(Cc3ccccc3)NS(=O)(=O)c3ccc(C)cc3)cs2)cc1C(F)(F)F` (stereo not drawn) [compound 6, N-(3-(trifluoromethyl)-4-(pentyloxy)phenyl)-4-(2-phenyl-1-(tosylamino)ethyl)thiazol-2-amine] here?
Answer: The EC50 was 1 to 10 µM.

Question: Which EC50 does the source give for `CCCCCOc1ccc(Nc2ncc(C(=O)NCc3ccc(S(N)(=O)=O)cc3)s2)cc1C(F)(F)F` [compound 151, N-(4-aminosulfonyl-benzyl)-2-(4-(pentyloxy)-3-(trifluoromethyl)phenylamino)-thiazole-5-carboxamide] here?
Answer: The EC50 was over 10 µM.

same assay, conditions: Hepatitis C virus, Huh-7, 72 h, Table III; Huh-7 HCV replicon-containing cells, three days; read-out: Activity

Question: Which EC50 does the source give for `CCCCCCC(C)Oc1ccc(Nc2nc(-c3ccc(NC(C)=O)nc3)cs2)cc1C(F)(F)F` (stereo not drawn) [compound 676, N-(5-(2-(3-(trifluoromethyl)-4-(octan-2-yloxy)phenylamino)thiazol-4-yl)pyridin-2-yl)acetamide] here?
Answer: The EC50 was under 1 µM.

Question: For `CCCCCCCCOc1ccc(Nc2nc(Cc3ccc(OC)cc3)cs2)cc1C(F)(F)F` [compound 641, 4-(4-methoxybenzyl)-N-(3-(trifluoromethyl)-4-(octyloxy)phenyl)thiazol-2-amine], which EC50 is on record?
Answer: Its EC50 is under 1 µM.

Question: `CCCCCCCCc1ccc(Nc2nc(-c3ccc4c(c3)NC(=O)CO4)cs2)cc1` [compound 548, 6-(2-(4-octylphenylamino)thiazol-4-yl)-2H-benzo[b][1,4]oxazin-3(4H)-one] was tested. Which EC50 did it give?
Answer: Its EC50 is under 1 µM.

Question: For `CCCCCCCCOc1ccc(Nc2nc(-c3ccsc3C#N)cs2)cc1C(F)(F)F` [compound 671, 3-(2-(3-(trifluoromethyl)-4-(octyloxy)phenylamino)thiazol-4-yl)thiophene-2-carbonitrile], which EC50 is on record?
Answer: Its EC50 is under 1 µM.

same assay, conditions: Hepatitis C virus, replicon based assay of HCV replication inhibition; Table II; read-out: Activity

Question: For `CCCCCOc1ccc(Nc2nc(-c3c(C)cc(C)nc3C)cs2)cc1C(F)(F)F` [compound 445, N-(3-(trifluoromethyl)-4-(pentyloxy)phenyl)-4-(2,4,6-trimethylpyridin-3-yl)thiazol-2-amine], which EC50 is on record?
Answer: The EC50 was over 10 µM.

Question: `CCCCCOc1ccc(Nc2nc(CN3C(C)CCCC3C)cs2)cc1F` (stereo not drawn) [compound 297, 4-((2,6-dimethylpiperidin-1-yl)methyl)-N-(3-fluoro-4-(pentyloxy)phenyl)thiazol-2-amine] was tested. Which EC50 did it give?
Answer: The EC50 was 1 to 10 µM.

Question: For `CCCCCOc1ccc(Nc2nc(-c3cc4ccccc4o3)cs2)cc1C(F)(F)F` [compound 413, 4-(benzofuran-2-yl)-N-(3-(trifluoromethyl)-4-(pentyloxy)phenyl)thiazol-2-amine], which EC50 is on record?
Answer: Its EC50 is under 1 µM.

Question: How did the EC50 turn out when `CCCCCCCCOc1ccc(Nc2nc(-c3ccc(Br)cc3)cs2)cc1` [compound 382, 4-(4-bromophenyl)-N-(4-(octyloxy)phenyl)thiazol-2-amine] was run?
Answer: Its EC50 is under 1 µM.

Question: Which EC50 does the source give for `COc1ccc(OC)c(Nc2ncc(-c3cccs3)s2)c1` [compound 440, N-(2,5-dimethoxyphenyl)-5-(thiophen-2-yl)thiazol-2-amine] here?
Answer: Its EC50 is 1 to 10 µM.

Question: Which EC50 does the source give for `CCCCCCCCOc1ccc(Nc2nc(-c3ccc(O)cc3)cs2)cc1` [compound 458, 4-(2-(4-(octyloxy)phenylamino)thia-zol-4-yl)phenol] here?
Answer: The EC50 was under 1 µM.

Question: With `COc1ccc(CNc2nc(-c3ccc(OCC(=O)O)cc3)c(C)s2)cc1` [compound 341, 2-(4-(2-(4-methoxybenzylamino)-5-methylthiazol-4-yl)phenoxy)acetic acid] as the molecule, how does the EC50 read?
Answer: The EC50 was over 10 µM.

Question: With `CCCCCCCCN(C)c1ccc(Nc2nc(Cc3cccc(F)c3)cs2)cc1C(F)(F)F` [compound 518, N^4-(4-(3-fluorobenzyl)thiazol-2-yl)-2-(trifluoromethyl)-N^1-methyl-N^1-octylbenzene-1,4-diamine] as the molecule, how does the EC50 read?
Answer: The EC50 was 1 to 10 µM.

Question: Which EC50 does the source give for `CCCCCCCCOc1ccc(Nc2nc(CN3CCC(CO)CC3)cs2)cc1` [compound 322, (1-((2-(4-(octyloxy)phenylamino)thia-zol-4-yl)methyl)piperidin-4-yl)methanol] here?
Answer: Its EC50 is 1 to 10 µM.

Question: How did the EC50 turn out when `Cc1sc(NC(=O)c2ccccc2)nc1-c1ccc(F)cc1` [compound 350, N-(4-(4-fluorophenyl)-5-methylthiazol-2-yl)benzamide] was run?
Answer: The EC50 was over 10 µM.

Question: For `COc1ccc(Oc2ccccc2)cc1Nc1nc(-c2cccnc2)cs1` [compound 300, N-(2-methoxy-5-phenoxyphenyl)-4-(pyridin-3-yl)thiazol-2-amine], which EC50 is on record?
Answer: The EC50 was 1 to 10 µM.

Question: With `FC(F)(F)c1cc(Nc2nc(-c3cccnc3)cs2)ccc1OCC1CC1` [compound 240, N-(4-(cyclopropylmethoxy)-3-(trifluoromeethyl)phenyl)-4-(pyridin-3-yl)thiazol-2-amine] as the molecule, how does the EC50 read?
Answer: The EC50 was under 1 µM.

Question: For `CCCCCOc1ccc(Nc2nc(CN3CCC(C)CC3)cs2)cc1C(F)(F)F` [compound 231, 4-((4-methylpiperidin-1-yl)methyl)-N-(4-(pentyloxy)-3-(trifluoromethyl)phenyl)thia-zol-2-amine], which EC50 is on record?
Answer: Its EC50 is under 1 µM.

Question: `CCCCCCCCOc1ccc(Nc2nc(-c3ccc(C(=O)N(C)C)nc3)cs2)cc1` [compound 456, 5-(2-(4-(octyloxy)phenylamino)thia-zol-4-yl)-N,N-dimethylpyridine-2-carboxamide] was tested. Which EC50 did it give?
Answer: The EC50 was 1 to 10 µM.

same assay, conditions: Hepatitis C virus, replicon based assay of HCV replication inhibition; Table IV; read-out: Activity

Question: `Cc1sc(Nc2ccc(OCCCCc3ccccc3)c(C(F)(F)F)c2)nc1-c1cccnc1` [compound 838, N-(4-(4-phenylbutoxy)-3-(trifluoromethyl)phenyl)-5-methyl-4-(pyridin-3-yl)thiazol-2-amine] was tested. Which EC50 did it give?
Answer: The EC50 was under 1 µM.

Question: With `CN(CCOc1ccc(Nc2nc(-c3cccnc3)cs2)cc1C(F)(F)F)c1ccccc1` [compound 802] as the molecule, how does the EC50 read?
Answer: The EC50 was under 1 µM.

Question: With `CCCCCCCCN(C)c1ccc(Nc2nc(-c3cccnc3)c(C)s2)cc1C(F)(F)F` [compound 862, 2-(trifluoromethyl)-N^1-methyl-N^4-(5-methyl-4-(pyridin-3-yl)thiazol-2-yl)-N^1-octylbenzene-1,4-diamine] as the molecule, how does the EC50 read?
Answer: The EC50 was under 1 µM.

Question: Which EC50 does the source give for `CCCCCCCCOc1ccc(Nc2nc(-c3cccnc3)c(N)s2)cc1C(F)(F)F` [compound 923, N^2-(3-(trifluoromethyl)-4-(octyloxy)phenyl)-4-(pyridin-3-yl)thiazole-2,5-diamine] here?
Answer: The EC50 was under 1 µM.

Question: Which EC50 does the source give for `c1cncc(-c2csc(Nc3nc(CN4CCCCC4)cs3)n2)c1` [compound 834, 4-((piperidin-1-yl)methyl)-N-(4-(pyridin-3-yl)thiazol-2-yl)thiazol-2-amine] here?
Answer: Its EC50 is over 10 µM.

Question: How did the EC50 turn out when `FC(F)(F)c1cc(Nc2nc(-c3cccnc3)cs2)ccc1OCCCCc1ccccc1` [compound 804, N-(4-(4-phenylbutoxy)-3-(trifluoromethyl)phenyl)-4-(pyridin-3-yl)thiazol-2-amine] was run?
Answer: Its EC50 is under 1 µM.

Question: For `FC(F)(F)c1cc(Nc2nc(-c3cccnc3)cs2)ccc1OCCCOc1ccccc1` [compound 924, N-(4-(3-phenoxypropoxy)-3-(trifluoromethyl)phenyl)-4-(pyridin-3-yl)thiazol-2-amine], which EC50 is on record?
Answer: The EC50 was under 1 µM.

Question: `CCOC(=O)Cc1ccc(-c2csc(Nc3ccc(OCCOc4ccccc4)c(C(F)(F)F)c3)n2)s1` [compound 933, ethyl 2-(5-(2-(4-(2-phenoxyethoxy)-3-(trifluoromethyl)phenylamino)thiazol-4-yl)thiophen-2-yl)acetate] was tested. Which EC50 did it give?
Answer: Its EC50 is 1 to 10 µM.

Question: With `Cc1ccc2nc(Nc3nc(-c4cccnc4)cs3)sc2c1` [compound 794, 6-methyl-N-(4-(pyridin-3-yl)thiazol-2-yl)benzo[d]thiazol-2-amine] as the molecule, how does the EC50 read?
Answer: The EC50 was over 10 µM.

Question: For `Fc1ccc(Cn2ccc3ccc(Nc4nc(-c5cccnc5)cs4)cc32)cc1` [compound 867, 1-(4-fluorobenzyl)-N-(4-(pyridin-3-yl)thiazol-2-yl)-1H-indol-6-amine], which EC50 is on record?
Answer: Its EC50 is under 1 µM.

Question: How did the EC50 turn out when `FC(F)(F)c1cc(Nc2nc(-c3cccnc3)cs2)ccc1CCCCCc1ccccc1` [compound 938, N-(3-(trifluoromethyl)-4-(5-phenylpentyl)phenyl)-4-(pyridin-3-yl)thiazol-2-amine] was run?
Answer: Its EC50 is under 1 µM.

Question: With `CCCCCCCCOC(=O)c1ccc(Nc2nc(-c3cnc(OC)nc3)cs2)cc1C(F)(F)F` [compound 779, octyl 4-(4-(2-methoxypyrimidin-5-yl)thiazol-2-ylamino)-2-(trifluoromethyl)benzoate] as the molecule, how does the EC50 read?
Answer: Its EC50 is under 1 µM.
